Tests used:
[1] = target: Mitogen-activated protein kinase 3 (Homo sapiens) (UniProt P27361); test: Inhibition of full length recombinant human GST-tagged ERK1 expressed in Escherichia coli at 10 uM by Z'-LYTE assay relative to control
[2] = target: Serine/threonine-protein kinase Chk1 (Homo sapiens) (UniProt O14757); test: Inhibition of full length recombinant human His-tagged CHK1 expressed in baculovirus expression system at 10 uM by Z'-LYTE assay relative to control
[3] = target: Receptor tyrosine-protein kinase erbB-2 (Homo sapiens) (UniProt P04626); test: Inhibition of recombinant human His-tagged HER2 cytoplasmic domain (676 to 1255 residues) expressed in baculovirus expression system at 10 uM by Z'-LYTE assay relative to control
[4] = target: Rho-associated protein kinase 1 (Homo sapiens) (UniProt Q13464); test: Inhibition of recombinant human GST-tagged ROCK1 catalytic domain (1 to 535 residues) expressed in baculovirus expression system at 10 uM relative to control
[5] = target: Tyrosine-protein kinase ABL1 (Homo sapiens) (UniProt P00519); test: Inhibition of recombinant human His-tagged ABL1 cytoplasmic domain expressed in baculovirus expression system at 10 uM by Z'-LYTE assay relative to control
[6] = target: Aurora kinase A (Homo sapiens) (UniProt O14965); test: Inhibition of full length recombinant human His-tagged Aurora A expressed in baculovirus expression system at 10 uM by Z'-LYTE assay relative to control
[7] = target: Casein kinase II subunit alpha (Homo sapiens) (UniProt P68400); test: Inhibition of full length recombinant human His-tagged CK2alpha1 expressed in baculovirus expression system at 10 uM by Z'-LYTE assay relative to control
[8] = target: Proto-oncogene tyrosine-protein kinase Src (Homo sapiens) (UniProt P12931); test: Inhibition of recombinant human C-terminal His-tagged SRC cytoplasmic domain expressed in baculovirus expression system at 10 uM by Z'-LYTE assay relative to control
[9] = target: Proto-oncogene tyrosine-protein kinase receptor Ret (Homo sapiens) (UniProt P07949); test: Inhibition of recombinant human GST-tagged RET cytoplasmic domain (658 to 1114 residues) expressed in baculovirus expression system at 10 uM relative to control
Proto-oncogene tyrosine-protein kinase receptor Ret (Homo sapiens), sequence (P07949 whole entry, the tested form may be a part): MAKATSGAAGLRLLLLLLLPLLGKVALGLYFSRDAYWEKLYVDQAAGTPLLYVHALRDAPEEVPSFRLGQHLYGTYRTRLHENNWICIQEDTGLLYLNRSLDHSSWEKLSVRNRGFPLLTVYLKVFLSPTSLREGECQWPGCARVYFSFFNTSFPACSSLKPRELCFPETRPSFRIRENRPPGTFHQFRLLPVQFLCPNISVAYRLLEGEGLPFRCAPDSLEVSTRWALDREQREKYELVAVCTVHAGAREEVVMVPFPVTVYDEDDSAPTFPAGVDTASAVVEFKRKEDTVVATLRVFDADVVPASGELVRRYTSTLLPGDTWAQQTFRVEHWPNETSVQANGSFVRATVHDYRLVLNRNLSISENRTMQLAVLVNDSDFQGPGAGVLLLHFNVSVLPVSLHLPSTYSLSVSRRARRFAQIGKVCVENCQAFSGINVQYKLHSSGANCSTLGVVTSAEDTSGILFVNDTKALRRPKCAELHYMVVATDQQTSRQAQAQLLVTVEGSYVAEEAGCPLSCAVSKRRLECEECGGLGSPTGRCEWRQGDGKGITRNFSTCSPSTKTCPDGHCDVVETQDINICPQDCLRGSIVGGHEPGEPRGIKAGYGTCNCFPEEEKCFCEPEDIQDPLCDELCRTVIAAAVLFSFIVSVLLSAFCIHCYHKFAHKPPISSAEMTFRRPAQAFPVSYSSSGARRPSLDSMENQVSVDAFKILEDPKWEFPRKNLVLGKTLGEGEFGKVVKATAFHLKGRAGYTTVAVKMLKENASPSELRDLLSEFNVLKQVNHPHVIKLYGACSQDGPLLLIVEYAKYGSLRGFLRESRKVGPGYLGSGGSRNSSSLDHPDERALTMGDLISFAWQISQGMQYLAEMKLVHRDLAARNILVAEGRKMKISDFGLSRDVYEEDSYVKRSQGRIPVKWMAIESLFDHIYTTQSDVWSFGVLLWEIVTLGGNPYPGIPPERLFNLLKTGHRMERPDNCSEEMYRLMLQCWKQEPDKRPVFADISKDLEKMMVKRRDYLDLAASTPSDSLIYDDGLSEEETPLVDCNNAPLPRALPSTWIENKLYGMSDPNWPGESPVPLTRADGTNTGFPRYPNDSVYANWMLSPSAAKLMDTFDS

[10] = target: Tyrosine-protein kinase SYK (Homo sapiens) (UniProt P43405); test: Inhibition of recombinant human N-terminal GST-tagged SYK cytoplasmic domain expressed in baculovirus expression system at 10 uM by Z'-LYTE assay relative to control
[11] = target: Insulin-like growth factor 1 receptor (Homo sapiens) (UniProt P08069); test: Inhibition of recombinant human C-terminal His-tagged IGF1R cytoplasmic domain (960 to 1397 residues) expressed in baculovirus expression system at 10 uM by Z'-LYTE assay relative to control
[12] = target: RAC-alpha serine/threonine-protein kinase (Homo sapiens) (UniProt P31749); test: Inhibition of full length recombinant human His-tagged PKBalpha expressed in baculovirus expression system at 10 uM by Z'-LYTE assay relative to control
RAC-alpha serine/threonine-protein kinase (Homo sapiens), sequence (P31749 whole entry, the tested form may be a part): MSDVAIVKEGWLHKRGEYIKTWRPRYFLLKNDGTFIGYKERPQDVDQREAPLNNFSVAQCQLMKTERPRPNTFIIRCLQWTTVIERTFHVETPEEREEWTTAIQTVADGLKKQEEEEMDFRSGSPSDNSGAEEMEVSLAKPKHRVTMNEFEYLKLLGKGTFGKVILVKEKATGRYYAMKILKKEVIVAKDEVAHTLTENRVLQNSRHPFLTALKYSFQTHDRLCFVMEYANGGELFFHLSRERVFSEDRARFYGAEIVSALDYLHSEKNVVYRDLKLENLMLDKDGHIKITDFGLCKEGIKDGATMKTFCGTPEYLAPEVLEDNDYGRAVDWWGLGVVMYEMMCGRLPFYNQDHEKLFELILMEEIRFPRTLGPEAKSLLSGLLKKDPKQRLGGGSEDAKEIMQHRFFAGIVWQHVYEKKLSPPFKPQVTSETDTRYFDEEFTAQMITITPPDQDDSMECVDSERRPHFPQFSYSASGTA

[13] = target: Ribosomal protein S6 kinase beta-1 (Homo sapiens) (UniProt P23443); test: Inhibition of recombinant human GST-tagged p70S6K catalytic domain (1 to 421 residues) expressed in baculovirus expression system at 10 uM relative to control
[14] = target: Vascular endothelial growth factor receptor 2 (Homo sapiens) (UniProt P35968); test: Inhibition of recombinant human His-tagged KDR cytoplasmic domain (789 to 1356 residues) expressed in baculovirus expression system at 10 uM by Z'-LYTE assay relative to control
Vascular endothelial growth factor receptor 2 (Homo sapiens), sequence (P35968 whole entry, the tested form may be a part): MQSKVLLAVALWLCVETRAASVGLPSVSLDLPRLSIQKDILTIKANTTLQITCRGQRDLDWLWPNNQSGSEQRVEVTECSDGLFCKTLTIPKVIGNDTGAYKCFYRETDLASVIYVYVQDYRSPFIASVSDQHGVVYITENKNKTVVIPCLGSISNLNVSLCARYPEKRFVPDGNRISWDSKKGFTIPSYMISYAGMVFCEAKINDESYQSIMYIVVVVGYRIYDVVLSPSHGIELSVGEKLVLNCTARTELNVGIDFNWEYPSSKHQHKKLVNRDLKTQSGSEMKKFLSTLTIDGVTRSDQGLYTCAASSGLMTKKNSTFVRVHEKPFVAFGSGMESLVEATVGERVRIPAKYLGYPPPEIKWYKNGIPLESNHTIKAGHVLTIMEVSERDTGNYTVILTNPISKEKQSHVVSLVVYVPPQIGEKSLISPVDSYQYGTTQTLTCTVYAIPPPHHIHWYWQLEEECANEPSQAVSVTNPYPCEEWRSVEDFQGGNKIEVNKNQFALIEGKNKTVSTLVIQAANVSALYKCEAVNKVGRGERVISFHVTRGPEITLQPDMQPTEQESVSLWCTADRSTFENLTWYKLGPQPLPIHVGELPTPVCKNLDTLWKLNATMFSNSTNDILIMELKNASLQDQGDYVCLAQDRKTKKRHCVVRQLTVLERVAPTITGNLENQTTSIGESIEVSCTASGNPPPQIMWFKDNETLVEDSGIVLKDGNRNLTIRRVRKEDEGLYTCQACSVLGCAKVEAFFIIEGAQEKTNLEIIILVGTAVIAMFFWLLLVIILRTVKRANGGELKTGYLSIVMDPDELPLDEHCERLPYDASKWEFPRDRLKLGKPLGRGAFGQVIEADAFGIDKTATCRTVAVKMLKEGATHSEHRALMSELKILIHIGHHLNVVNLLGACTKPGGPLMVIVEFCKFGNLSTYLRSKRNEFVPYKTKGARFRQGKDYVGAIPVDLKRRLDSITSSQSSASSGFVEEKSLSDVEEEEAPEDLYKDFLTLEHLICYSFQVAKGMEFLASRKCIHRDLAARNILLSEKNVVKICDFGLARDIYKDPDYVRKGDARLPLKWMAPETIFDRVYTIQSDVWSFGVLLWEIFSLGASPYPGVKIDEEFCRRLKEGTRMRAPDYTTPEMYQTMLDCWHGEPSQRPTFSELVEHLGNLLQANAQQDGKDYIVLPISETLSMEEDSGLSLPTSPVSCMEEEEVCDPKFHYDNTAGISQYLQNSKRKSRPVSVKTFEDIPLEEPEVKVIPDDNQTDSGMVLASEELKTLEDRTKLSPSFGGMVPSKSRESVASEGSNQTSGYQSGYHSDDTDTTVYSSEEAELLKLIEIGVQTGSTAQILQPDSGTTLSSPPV

[15] = target: Fibroblast growth factor receptor 1 (Homo sapiens) (UniProt P11362); test: Inhibition of recombinant human His-tagged FGFR1 cytoplasmic domain (308 to 731 residues) expressed in baculovirus expression system at 10 uM by Z'-LYTE assay relative to control
[16] = target: Mitogen-activated protein kinase kinase kinase kinase 4 (Homo sapiens) (UniProt O95819); test: Inhibition of recombinant human GST-tagged HGK catalytic domain (1 to 328 residues) expressed in baculovirus expression system at 10 uM by Z'-LYTE assay relative to control
[17] = target: Platelet-derived growth factor receptor beta (Homo sapiens) (UniProt P09619); test: Inhibition of recombinant human His-tagged PDGFRbeta cytoplasmic domain (558 to 1106 residues) expressed in baculovirus expression system at 10 uM by Z'-LYTE assay relative to control
[18] = target: Insulin receptor (Homo sapiens) (UniProt P06213); test: Inhibition of recombinant human GST-tagged INSR cytoplasmic domain (1011 to 1382 residues) expressed in baculovirus expression system at 10 uM by Z'-LYTE assay relative to control
[19] = target: MAP kinase-activated protein kinase 2 (Homo sapiens) (UniProt P49137); test: Inhibition of full length recombinant human His-tagged MAPKAPK2 expressed in Escherichia coli at 10 uM by Z'-LYTE assay relative to control
[20] = target: Angiopoietin-1 receptor (Homo sapiens) (UniProt Q02763); test: Inhibition of recombinant human GST-tagged TIE2 cytoplasmic domain (817 to 1101 residues) expressed in baculovirus expression system at 10 uM by Z'-LYTE assay relative to control
Angiopoietin-1 receptor (Homo sapiens), sequence (Q02763 whole entry, the tested form may be a part, canonical isoform): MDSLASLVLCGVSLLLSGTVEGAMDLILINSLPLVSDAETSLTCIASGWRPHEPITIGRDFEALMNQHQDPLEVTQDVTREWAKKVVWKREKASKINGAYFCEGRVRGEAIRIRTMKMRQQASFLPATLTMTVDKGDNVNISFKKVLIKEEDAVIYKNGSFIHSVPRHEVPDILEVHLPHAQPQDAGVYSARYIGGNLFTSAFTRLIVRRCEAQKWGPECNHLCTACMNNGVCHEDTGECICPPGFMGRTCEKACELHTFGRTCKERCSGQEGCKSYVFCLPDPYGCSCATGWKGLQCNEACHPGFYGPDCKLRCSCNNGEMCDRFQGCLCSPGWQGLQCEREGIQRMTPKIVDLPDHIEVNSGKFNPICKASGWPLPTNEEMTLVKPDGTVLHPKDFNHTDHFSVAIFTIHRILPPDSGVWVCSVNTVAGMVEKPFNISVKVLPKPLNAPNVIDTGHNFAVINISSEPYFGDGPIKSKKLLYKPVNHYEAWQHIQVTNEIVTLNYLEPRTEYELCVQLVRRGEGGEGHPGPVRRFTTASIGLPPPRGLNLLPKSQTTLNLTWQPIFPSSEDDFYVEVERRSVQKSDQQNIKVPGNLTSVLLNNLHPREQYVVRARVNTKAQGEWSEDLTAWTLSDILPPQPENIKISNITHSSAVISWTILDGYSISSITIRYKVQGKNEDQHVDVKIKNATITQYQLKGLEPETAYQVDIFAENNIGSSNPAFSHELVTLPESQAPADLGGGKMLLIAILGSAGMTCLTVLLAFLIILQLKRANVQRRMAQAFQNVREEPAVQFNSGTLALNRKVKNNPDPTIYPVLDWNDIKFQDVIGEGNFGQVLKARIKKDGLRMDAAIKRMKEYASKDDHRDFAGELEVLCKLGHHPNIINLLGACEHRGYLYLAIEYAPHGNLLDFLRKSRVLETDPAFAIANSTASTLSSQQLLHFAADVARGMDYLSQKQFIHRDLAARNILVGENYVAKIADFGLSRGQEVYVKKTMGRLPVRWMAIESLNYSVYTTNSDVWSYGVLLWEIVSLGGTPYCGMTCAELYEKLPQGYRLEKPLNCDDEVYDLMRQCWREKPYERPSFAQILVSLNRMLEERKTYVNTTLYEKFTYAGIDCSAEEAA

[21] = target: Phosphorylase b kinase gamma catalytic chain, liver/testis isoform (Homo sapiens) (UniProt P15735); test: Inhibition of full length recombinant human GST-tagged PHKG2 expressed in baculovirus expression system at 10 uM relative to control
[22] = target: Tyrosine-protein kinase BTK (Homo sapiens) (UniProt Q06187); test: Inhibition of recombinant human His-tagged BTK cytoplasmic domain expressed in baculovirus expression system at 10 uM by Z'-LYTE assay relative to control
[23] = target: Mitogen-activated protein kinase 14 (Homo sapiens, UniProt Q16539); test: Inhibition of full length recombinant human GST-tagged p38alpha expressed in Escherichia coli at 10 uM by Z'-LYTE assay relative to control
[24] = target: Serine/threonine-protein kinase pim-1 (Homo sapiens) (UniProt P11309); test: Inhibition of full length recombinant human His-tagged PIM1 expressed in baculovirus expression system at 10 uM relative to control
[25] = target: Dual specificity tyrosine-phosphorylation-regulated kinase 3 (Homo sapiens) (UniProt O43781); test: Inhibition of full length recombinant human GST-tagged DYRK3 expressed in baculovirus expression system at 10 uM by Z'-LYTE assay relative to control
[26] = target: Hepatocyte growth factor receptor (Homo sapiens) (UniProt P08581); test: Inhibition of recombinant human His-tagged MET cytoplasmic domain (956 to 1390 residues) expressed in baculovirus expression system at 10 uM by Z'-LYTE assay relative to control
[27] = target: Ephrin type-A receptor 2 (Homo sapiens) (UniProt P29317); test: Inhibition of recombinant human GST-tagged EPHA2 cytoplasmic domain (560 to 976 residues) expressed in baculovirus expression system at 10 uM by Z'-LYTE assay relative to control
Ephrin type-A receptor 2 (Homo sapiens), sequence (P29317 whole entry, the tested form may be a part): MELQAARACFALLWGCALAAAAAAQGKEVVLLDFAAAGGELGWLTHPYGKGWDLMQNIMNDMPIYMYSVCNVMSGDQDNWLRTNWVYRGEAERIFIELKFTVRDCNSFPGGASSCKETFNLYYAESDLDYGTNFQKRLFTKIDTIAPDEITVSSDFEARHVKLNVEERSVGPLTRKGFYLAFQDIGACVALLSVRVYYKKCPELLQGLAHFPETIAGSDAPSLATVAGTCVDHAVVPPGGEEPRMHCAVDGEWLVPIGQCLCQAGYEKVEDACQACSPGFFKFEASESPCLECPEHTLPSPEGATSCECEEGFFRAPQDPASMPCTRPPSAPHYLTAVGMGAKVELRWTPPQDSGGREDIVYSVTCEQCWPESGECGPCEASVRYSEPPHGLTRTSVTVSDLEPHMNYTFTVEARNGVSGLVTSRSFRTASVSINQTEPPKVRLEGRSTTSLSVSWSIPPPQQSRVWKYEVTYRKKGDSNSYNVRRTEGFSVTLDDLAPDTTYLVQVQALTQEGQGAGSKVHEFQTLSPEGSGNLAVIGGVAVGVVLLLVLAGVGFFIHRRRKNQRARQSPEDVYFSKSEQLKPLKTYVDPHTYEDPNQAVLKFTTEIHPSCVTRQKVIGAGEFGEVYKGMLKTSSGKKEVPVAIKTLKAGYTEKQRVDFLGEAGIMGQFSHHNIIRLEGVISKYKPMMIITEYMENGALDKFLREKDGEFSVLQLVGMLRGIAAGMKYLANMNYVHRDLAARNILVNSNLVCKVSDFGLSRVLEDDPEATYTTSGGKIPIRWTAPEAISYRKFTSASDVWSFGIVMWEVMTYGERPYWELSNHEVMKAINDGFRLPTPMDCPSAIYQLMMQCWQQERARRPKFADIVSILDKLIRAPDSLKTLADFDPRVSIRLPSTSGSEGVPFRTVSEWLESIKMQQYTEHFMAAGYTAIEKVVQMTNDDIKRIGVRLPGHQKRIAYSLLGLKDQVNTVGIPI

SMILES: CC1=Nc2c(Sc3ccccc3)ncnc2Sc2ccccc21
- inhibition [1]: 5%
- inhibition [2]: 3%
- inhibition [3]: -4%
- inhibition [4]: 2%
- inhibition [5]: 12%
- inhibition [6]: 6%
- inhibition [7]: 3%
- inhibition [8]: 3%
- inhibition [9]: 7%
- inhibition [10]: -3%
- inhibition [11]: 2%
- inhibition [12]: 5%
- inhibition [13]: 1%
- inhibition [14]: 12%
- inhibition [15]: -4%
- inhibition [16]: 15%
- inhibition [17]: -1%
- inhibition [18]: 2%
- inhibition [19]: 8%
- inhibition [20]: 11%
- inhibition [21]: 2%
- inhibition [22]: 3%
- inhibition [23]: 74%
- inhibition [24]: 3%
- inhibition [25]: 8%
- inhibition [26]: 14%
- inhibition [27]: 9%

Reference: ChEMBL document CHEMBL3997765 (Medchemcomm, 2016)
